Test results: US5089623A, “Certain imidate insecticides” (Imperial Chemical Industries Plc, priority 1990, dated 1992)

Experiments:
Assay type in all cases: in vivo
[1] = tested on: Housefly [Musca domestica]; assay: Housefly insecticidal test (HF); details: per 25 female houseflies, 48 hours
[2] = tested on: Tobacco Budworm [Heliothis virescens (Fabricius)] eggs; assay: Tobacco budworm egg test (TBW-E); details: percent in solution
[3] = tested on: Cabbage Looper [Trichoplusia ni (Hubner)]; assay: Cabbage looper test (CL); details: second-instar larvae, 3-5 days, percent in solution
[4] = tested on: Maize weevil [Sitophilus Zeamais (Motschulsky)]; assay: Maize weevil test (MW); details: adult weevils, treated corn seeds, 48 hours, percent in solution
Protocol: The compounds in Tables 1 and 2 above were tested for insecticidal activity using the following testing procedures. LC50 values, based on the results of these tests and calculated according to dosage-mortality curves, are expressed in Table 3.
Maize weevil [Sitophilus Zeamais (Motschulsky)]
Test compounds were diluted in a 50:50 acetone:water solution. Four corn seeds [Zea mays (L.)] which had been immersed in test solutions for 2-3 seconds and allowed to dry were placed in containers together with 10 adult weevils. The containers were covered and kept at a temperature of about 25° C. Mortality was recorded after 48 hours. Test concentrations ranged from 0.01% down to that at which 50% mortalilty occurred. The LC50 values are expressed below in Table 3 under the heading "MW" in terms of percent of the test compound in solution.

Compound: Cc1cc(N=C(OCc2cccc(Oc3ccc(Cl)cc3)c2)C(C)C)ccc1F [Compound 397]
- LC50 HF [1]: < 100 µg
- LC50 TBW E [2]: < 0.1%
- LC50 CL [3]: 0.0019%
- LC50 MW [4]: > 0.01%

Compound: COCc1c(F)c(F)c(COC(=Nc2ccc(F)c(Cl)c2)C(C)C)c(F)c1F [Compound 505]
- LC50 HF [1]: 14 µg
- LC50 TBW E [2]: 0.09%
- LC50 CL [3]: 0.0024%
- LC50 MW [4]: > 0.01%

Compound: Cc1cc(N=C(OCc2ccc(F)c(Oc3ccccc3)c2)C(C)C)ccc1F [Compound 400]
- LC50 HF [1]: < 100 µg
- LC50 TBW E [2]: 0.025%
- LC50 CL [3]: 0.0007%
- LC50 MW [4]: > 0.01%

Compound: CC(C)C(=Nc1ccc(F)c(Cl)c1)OCc1cccc(Oc2cccc(Cl)c2)c1 [Compound 203]
- LC50 HF [1]: 43 µg
- LC50 TBW E [2]: 0.06%
- LC50 CL [3]: 0.0025%
- LC50 MW [4]: > 0.01%

Compound: CC(C)C(=Nc1ccc(OCC(F)(F)F)c(Cl)c1)OCc1cccc(Oc2ccccc2)c1 [Compound 425]
- LC50 HF [1]: > 100 µg
- LC50 TBW E [2]: > 0.1%
- LC50 CL [3]: 0.00075%
- LC50 MW [4]: > 0.01%

Compound: CC(C)C(=Nc1ccc(OCC(F)(F)F)c(Cl)c1)OCc1ccc(F)c(Oc2ccccc2)c1 [Compound 424]
- LC50 HF [1]: > 100 µg
- LC50 TBW E [2]: 0.035%
- LC50 CL [3]: 0.00038%
- LC50 MW [4]: > 0.01%

Compound: CCc1ccc(N=C(OCc2cccc(Oc3ccccc3)c2)C(C)(C)C)cc1 [Compound 163]
- LC50 HF [1]: > 100 µg
- LC50 TBW E [2]: > 0.1%
- LC50 CL [3]: 0.004%
- LC50 MW [4]: > 0.01%

Compound: COc1ccc(N=C(OCc2ccc(F)c(Oc3ccc(F)cc3)c2)C(C)C)cc1Cl [Compound 408]
- LC50 HF [1]: < 100 µg
- LC50 TBW E [2]: 0.02%
- LC50 CL [3]: 0.0015%
- LC50 MW [4]: > 0.01%

Compound: Fc1ccc(COC(=Nc2ccc(C(F)(F)F)cc2)C2CC2)cc1Oc1ccc(Cl)cc1 [Compound 444]
- LC50 HF [1]: > 100 µg
- LC50 TBW E [2]: 0.023%
- LC50 CL [3]: 0.00015%
- LC50 MW [4]: > 0.01%

Compound: CC(C)C(=Nc1cccc([N+](=O)[O-])c1)OCc1cccc(Oc2ccccc2)c1 [Compound 302]
- LC50 HF [1]: 15 µg
- LC50 TBW E [2]: > 0.1%
- LC50 CL [3]: 0.003%
- LC50 MW [4]: > 0.01%

Compound: CC(C)C(=Nc1ccc(F)c(Br)c1)OCc1ccc(F)c(Oc2ccc(Cl)cc2)c1 [Compound 379]
- LC50 HF [1]: < 100 µg
- LC50 TBW E [2]: 0.02%
- LC50 CL [3]: 0.00075%
- LC50 MW [4]: > 0.01%

Compound: CC(C)C(=Nc1c(F)c(F)cc(F)c1F)OCc1cccc(Oc2ccc(F)cc2)c1 [Compound 304]
- LC50 HF [1]: > 100 µg
- LC50 TBW E [2]: > 0.1%
- LC50 CL [3]: 0.0024%
- LC50 MW [4]: > 0.01%

Compound: Cc1cc(N=C(OCc2ccc(F)c(Oc3ccc(Cl)cc3)c2)C(C)C)ccc1Br [Compound 407]
- LC50 HF [1]: > 100 µg
- LC50 TBW E [2]: 0.05%
- LC50 CL [3]: > 0.1%
- LC50 MW [4]: > 0.01%

Compound: CC(C)C(=Nc1ccc(F)c(Br)c1)OCc1cccc(Oc2ccc(Cl)cc2)c1 [Compound 398]
- LC50 HF [1]: < 100 µg
- LC50 TBW E [2]: < 0.1%
- LC50 CL [3]: < 0.1%
- LC50 MW [4]: > 0.01%

Compound: Cc1cccc(N=C(OCc2ccc(F)c(Oc3ccc(Cl)cc3)c2)C(C)C)c1 [Compound 401]
- LC50 HF [1]: < 100 µg
- LC50 TBW E [2]: 0.04%
- LC50 CL [3]: 0.0017%
- LC50 MW [4]: > 0.01%

Compound: CC(C)C(=Nc1ccc(F)c(I)c1)OCc1ccc(F)c(Oc2ccccc2)c1 [Compound 334]
- LC50 HF [1]: 9 µg
- LC50 TBW E [2]: 0.013%
- LC50 CL [3]: 0.0007%
- LC50 MW [4]: > 0.01%

Compound: CC(C)C(=Nc1cccc(Br)c1)OCc1ccc(F)c(Oc2ccc(Cl)cc2)c1 [Compound 386]
- LC50 HF [1]: < 100 µg
- LC50 TBW E [2]: > 0.1%
- LC50 CL [3]: 0.0012%
- LC50 MW [4]: > 0.01%

Compound: CC(C)C(=Nc1ccc(C#N)cc1)OCc1cccc(Oc2ccc(Cl)cc2)c1 [Compound 393]
- LC50 HF [1]: < 100 µg
- LC50 TBW E [2]: > 0.1%
- LC50 CL [3]: 0.00037%
- LC50 MW [4]: > 0.01%

Compound: CCC(C)C(=Nc1ccc(F)c(Cl)c1)OCc1ccc(F)c(Oc2ccccc2)c1 (stereo not drawn) [Compound 261]
- LC50 HF [1]: 24 µg
- LC50 TBW E [2]: 0.05%
- LC50 CL [3]: 0.001%

Compound: CC(C)C(=Nc1cc(F)ccc1F)OCc1cccc(Oc2ccccc2)c1 [Compound 56]
- LC50 HF [1]: 91 µg
- LC50 TBW E [2]: > 0.05%
- LC50 CL [3]: 0.01%

Compound: CC(C)C(=Nc1ccc2c(c1)OCO2)OCc1cccc(Oc2ccc(C(F)(F)F)cc2)c1 [Compound 246]
- LC50 HF [1]: 60 µg
- LC50 TBW E [2]: > 0.1%
- LC50 CL [3]: 0.004%

Compound: CC(C)C(=Nc1ccc(F)c(Cl)c1)OCc1ccc(OCc2ccc(F)cc2)cc1 [Compound 487]
- LC50 HF [1]: > 100 µg
- LC50 TBW E [2]: > 0.1%
- LC50 CL [3]: 0.023%

Compound: CC(C)C(=Nc1ccc(C#N)cc1)OCc1cccc(Oc2ccc(F)cc2)c1 [Compound 227]
- LC50 HF [1]: 10 µg
- LC50 TBW E [2]: 0.1%
- LC50 CL [3]: 0.0015%

Compound: CC(C)C(=Nc1ccc(Br)cc1F)OCc1cccc(Oc2ccccc2)c1 [Compound 79]
- LC50 HF [1]: 6 µg
- LC50 TBW E [2]: 0.05%
- LC50 CL [3]: 0.003%

Compound: CCC(C)C(=Nc1ccc(Cl)c(Cl)c1)OCc1cccc(Oc2ccccc2)c1 (stereo not drawn) [Compound 39]
- LC50 HF [1]: > 100 µg
- LC50 TBW E [2]: > 0.1%
- LC50 CL [3]: 0.0023%

Compound: CC(C)C(=Nc1cccc(C(F)(F)F)c1)OCc1cccc(Oc2ccc(Br)cc2)n1 [Compound 493]
- LC50 HF [1]: 36 µg
- LC50 TBW E [2]: 0.05%
- LC50 CL [3]: 0.0008%

Compound: COc1cc(N=C(OCc2cccc(Oc3ccccc3)c2)C(C)C)cc(C(F)(F)F)c1 [Compound 76]
- LC50 HF [1]: 20 µg
- LC50 TBW E [2]: 0.05%
- LC50 CL [3]: 0.002%

Compound: CCCC(=Nc1ccc(OC)cc1)OCc1cccc(Oc2ccccc2)c1 [Compound 184]
- LC50 HF [1]: 61 µg
- LC50 TBW E [2]: > 0.1%
- LC50 CL [3]: 0.024%

Compound: CC(C)C(=Nc1ccc2c(c1)CCO2)OCc1cccc(Oc2ccccc2)c1 [Compound 243]
- LC50 HF [1]: 9 µg
- LC50 TBW E [2]: > 0.1%
- LC50 CL [3]: 0.005%

Compound: CSc1cccc(N=C(OCc2cccc(Oc3ccccc3)c2)C(C)C)c1 [Compound 166]
- LC50 HF [1]: 22 µg
- LC50 TBW E [2]: > 0.1%
- LC50 CL [3]: 0.009%

Compound: CCC(=Nc1cccc(Cl)c1Cl)OCc1cccc(Oc2ccccc2)c1 [Compound 28]
- LC50 HF [1]: > 100 µg
- LC50 TBW E [2]: > 0.1%
- LC50 CL [3]: 0.009%

Compound: Cc1cc(N=C(OCc2cccc(Oc3ccccc3)c2)C(C)C)ccc1F [Compound 87]
- LC50 HF [1]: 5 µg
- LC50 TBW E [2]: 0.03%
- LC50 CL [3]: 0.004%

Compound: CCOc1cccc(N=C(OCc2cccc(Oc3ccccc3)c2)C(C)C)c1 [Compound 171]
- LC50 HF [1]: 80 µg
- LC50 TBW E [2]: > 0.1%
- LC50 CL [3]: 0.01%

Compound: COc1cccc(N=C(OCc2cccc(Oc3ccc(F)cc3)c2)C(C)C)c1 [Compound 201]
- LC50 HF [1]: 15 µg
- LC50 TBW E [2]: > 0.1%
- LC50 CL [3]: 0.004%

Compound: Cc1ccc(Oc2cccc(COC(=Nc3ccc(F)cc3)C(C)C)c2)cc1 [Compound 231]
- LC50 HF [1]: > 100 µg
- LC50 TBW E [2]: > 0.1%
- LC50 CL [3]: 0.003%

Compound: CC(C)C(=Nc1c(Br)cc(F)cc1Br)OCc1cccc(Oc2ccccc2)c1 [Compound 130]
- LC50 HF [1]: > 100 µg
- LC50 TBW E [2]: > 0.1%
- LC50 CL [3]: 0.005%
